The structures appear in SMILES notation. Values after ≈ are worked out from the molar mass of the structure shown. Where only a bound is given, the exact number is not on record here.

IC50 and MIC data for nine molecules are collected here from ChEMBL document CHEMBL4130595, “Antitubercular Nitroimidazoles Revisited: Synthesis and Activity of the Authentic 3-Nitro Isomer of Pretomanid” (ACS Med Chem Lett, 2017).

The test system of one assay is Vero. Kind of assay: Cytotoxicity against African green monkey Vero cells after 72 hrs by MTS/PMS assay. In kind it is cell-based. To be noted: Chlorocebus sabaeus.
The test system of assay [1] is Mycobacterium tuberculosis. Kind of assay: Antitubercular activity against Mycobacterium tuberculosis H37Rv ATCC 27294 incubated for 10 days under low oxygen condition followed by second incubation under aerobic condition for 28 hrs by LORA. In kind it is functional.
Assay [2] has as its system Mycobacterium tuberculosis. Description: Antitubercular activity against Mycobacterium tuberculosis H37Rv measured after 7 days under aerobic condition by alamar blue assay. Format: functional. As to conditions: 168 h.

As a reminder, the IC50 is the concentration at which inhibition is half-maximal. For orientation: MIC means the lowest concentration found to suppress growth. In turn, `Cc1cc(CO[C@@H]2COc3nc([N+](=O)[O-])cn3C2)ccc1OC(F)(F)F` had a concentration for half-maximal inhibition (IC50) in the assay on Vero of over 128 µM. Further, the MIC in assay [1] worked out at 1 µM (≈ 0.373 µg/mL); in assay [2], 0.063 µM (≈ 0.0235 µg/mL).

As to `O=[N+]([O-])c1cnc2n1C[C@H](OCc1ccc(OC(F)(F)F)cc1)CO2`, the IC50 in the assay on Vero was over 128 µM. Also, the MIC in assay [1] and in assay [2] was over 128 µM each time.

The molecule `O=[N+]([O-])c1cnc2n1C[C@H](O)CO2` had a half-maximal inhibitory concentration (IC50) with Vero of over 128 µM. In addition, the MIC in assay [1] and in assay [2] was over 128 µM throughout.

As for `COc1nc2ccc(Br)cc2cc1[C@@H](c1ccccc1)[C@@](O)(CCN(C)C)c1cccc2ccccc12` [BEDAQUILINE], the IC50 with Vero is over 10 µM. Also, the minimal inhibitory concentration (MIC) in assay [1] worked out at 0.11 µM (≈ 0.0611 µg/mL); in assay [2], 0.07 µM (≈ 0.0389 µg/mL).

In the case of `NNC(=O)c1ccncc1` [ISONIAZID], the MIC in assay [1] was over 128 µM; in assay [2] it was 0.34 µM (≈ 0.0466 µg/mL).

Turning to `CC(=O)NC[C@H]1CN(c2ccc(N3CCOCC3)c(F)c2)C(=O)O1` [LINEZOLID], the MIC in assay [1] came to 2.8 µM (≈ 0.945 µg/mL); in assay [2], 2.9 µM (≈ 0.978 µg/mL).

With `Cc1ncc([N+](=O)[O-])n1CCO` [METRONIDAZOLE], the figures for the MIC in assay [1] and in assay [2] were 79 µM (≈ 13.5 µg/mL) and over 512 µM, respectively.

Turning to `COc1c(N2C[C@@H]3CCCN[C@@H]3C2)c(F)cc2c(=O)c(C(=O)O)cn(C3CC3)c12` [MOXIFLOXACIN], the minimum inhibitory concentration (MIC) in assay [1] was over 128 µM; in assay [2], 0.42 µM (≈ 0.169 µg/mL).

For the molecule `CO[C@H]1/C=C/O[C@@]2(C)Oc3c(C)c(O)c4c(O)c(c(/C=N/N5CCN(C)CC5)c(O)c4c3C2=O)NC(=O)/C(C)=C\C=C\[C@H](C)[C@H](O)[C@@H](C)[C@@H](O)[C@@H](C)[C@H](OC(C)=O)[C@@H]1C` [RIFAMPIN], in the assay on Vero, the IC50 was over 100 µM. Moreover, the values for the minimal inhibitory concentration (MIC) in assay [1] and in assay [2] were 0.64 µM (≈ 0.527 µg/mL) and 0.049 µM (≈ 0.0403 µg/mL), respectively.
